Reference: publication PMC6374824 (International Journal of Endocrinology, 2019)
Entries after “also recorded” stand apart in the source; their conditions may differ. One block for each substance: values may come before it.

Assays:
[1] = tested on: islet amyloid; conditions: ref [27]; cited from earlier work
Text: In the present study, a pentapeptide inhibitor Phe-Leu-Pro-Asn-Phe (FLPNF) that contains only five amino acids has been designed. […] Even so, FLPNF was optimally designed and consisted of ...

[2] = tested on: fibrils of hIAPP; conditions: ref [25]; cited from earlier work
Text: In the early research, SNNFGA and GAILSS could not completely prevent the formation of fibr ...

[3] = molecular target: T1, hIAPP (Homo sapiens, UniProt P10997); conditions: ref [25], cited from earlier work; for inhibition of hIAPP aggregation in vitro: [26]
T1 construct: hormone secreted by β-cells consisting of 37 amino acid residues; purchased ChinaPeptide Co. Ltd. (Shanghai, China); host or cells: chemical synthesis
T1 sequence (P10997 34-70 limits assumed): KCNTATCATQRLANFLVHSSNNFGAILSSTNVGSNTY
Text: In the present study, a pentapeptide inhibitor Phe-Leu-Pro-Asn-Phe (FLPNF) that contains only five amino acids has been designed. […] After that, the ...

[4] = tested on: INS-1 cells; assay: Cell proliferation assay (MTS), hIAPP cytotoxicity in INS-1 cells
Method: The INS-1 cells at a density of 2 × 10^4 were plated in a 96-well plate. […] The untreated control cells received equal fresh medium. The medium of each group contained 0.2 μL DMSO, equal to 0.2% DMSO. Consequently, 10 μL MTS solution was added to each well and incubated for additional 2 hours. The optical density (OD) values were measured at 490 nm using a PowerWave XS2 microplate spectrophotometer (Thermo Scientific, USA). Each experiment was repeated thrice.

[5] = molecular target: T1, hIAPP; assay: Thioflavin T fluorescence assay, time course; assay type: biochemical; conditions: for ThT fluorescence intensity compared to hIAPP group, significance: PBS pH 7.4, 37°C, unpaired t-test
[6] = tested on: hIAPP amyloid fibrils; assay: Transmission electron microscopy of hIAPP amyloid fibrils; assay type: biochemical, human; conditions: PBS, 24 hours, 37°C, 2% phosphotungstic acid stain; for hIAPP fibril formation by TEM, with added peptide: 100 μM peptide + 10 μM hIAPP
Method: TEM was used to directly observe the relative density and morphological changes of hIAPP amyloid fibrils. […] A volume of 10 μL of each sample was placed on mesh copper grids (Servicebio, Wuhan, China) and was covered by a carbon-stabilized formvar film. After 3 min, excess fluid was removed, and the grids were stained with 2% phosphotungstic acid for 3 min. Samples were analyzed using a HT7700 transmission electron microscope (Hitachi, Japan).

[7] = molecular target: T1, hIAPP; assay: Thioflavin T fluorescence assay, concentration dependence; assay type: biochemical; conditions: PBS, 24 hours, 37°C
Method: The stock solutions were aliquoted and stored at -80°C according to the instructions.
The plates were incubated at 37°C for 0, 12, 24, and 48 hours. Finally, the fluorescence image was detected by an XDY-100 fluorescence microscope (Zhongheng, Shanghai, China). Subsequently, the fluorescence intensity values of each group were measured by a Fluoroskan Ascent FL luminescence meter (Thermo Scientific, USA) using an excitation λ of 435 nm and an emission λ of 485 nm. At each time course, the fluorescence intensity values of the control group were set as 1, while the values of test groups relative to the control group were set as fluorescence intensity (A.U.) and used for statistical analysis. Each experiment was repeated thrice.
The fluorescence images and the fluorescence intensity values of each group were collected after incubating for 24 hours. Each experiment was repeated thrice.

[8] = molecular target: T1, hIAPP; assay: Biolayer interferometry, FLPNF immobilized; assay type: binding; conditions: hIAPP 400 μM (method) / 100 μM (Figure 5 legend)
Method: Experiments were performed by Shuangtian Biotech Co. Ltd. FLPNF were reconstituted in PBS (pH = 7.4) and immobilized on aminopropylsilane (APS) biosensors. […] This was followed by a 600 sec dissociation phase in dissociation buffer (50% DMSO+0.05% PBST) in PBS. A response unit represented the bonding height on the biosensor. The association and dissociation curves were analyzed and constructed by Octet K2 biolayer interferometry.

Substance: D-ANFLVH
reduction of amyloid aggregates in vivo [1]: could reduce the islet amyloid accumulation in vivo; also recorded: can reduce the formation of amyloid aggregates in vivo

Substance: GAILSS
prevention of hIAPP fibril formation on TEM images [2]: could not completely prevent the formation of fibrils of hIAPP
inhibition of hIAPP aggregation in vitro [3]: can inhibit hIAPP aggregation in vitro

ThT fluorescence intensity compared to hIAPP group (luminescence meter) ([5]; 100 μM NFGAIL + 10 μM hIAPP, PBS pH 7.4, 20 μM ThT, 37°C, ex 435 nm, em 485 nm, repeated thrice): did not decrease
ThT fluorescence signal compared to 0 μM group ([7]; any concentration of NFGAIL (20-400 μM) + 10 μM hIAPP): no reduction
Substance: NFGAIL [reference compound]
reduction of cytotoxic effects of hIAPP in INS-1 cells ([4]; 100 μM NFGAIL + 10 μM hIAPP, 24 hours, MTS, OD 490 nm): no effect of reducing the cytotoxic effects of hIAPP
hIAPP fibril formation by TEM, with added peptide [6]: did not reduce or even increase the amount of the fibril formation; also recorded: No reduction of the fibrils
effect on hIAPP fibril formation ([3]; residues 22–27 of hIAPP, negative control): could enhance hIAPP fibril formation

Substance: NFGAILPP
inhibition of hIAPP aggregation in vitro [3]: can inhibit hIAPP aggregation in vitro

Substance: NYGAILSS
inhibition of hIAPP aggregation in vitro [3]: can inhibit hIAPP aggregation in vitro

ThT fluorescence intensity compared to hIAPP group, significance ([5]; 100 μM FLPNF + 10 μM hIAPP, 24 h, P < 0.05, ex 435 nm, em 485 nm, repeated thrice): significantly lowered
ThT fluorescence intensity compared to hIAPP group, significance ([5]; 100 μM FLPNF + 10 μM hIAPP, 48 h, P < 0.01, ex 435 nm, em 485 nm, repeated thrice): significantly lowered
inhibitory effect at 48 hours ([5]; in vitro, 48 hours): still had an inhibitory effect
inhibition of amyloid formation ([5]; tenfold molar excess to hIAPP, PBS, 24 hours): partially inhibited amyloid formation
association response (response units) ([8]; FLPNF immobilized on APS biosensor, PBS pH 7.4, association 300 sec, Octet K2): approximately 0.02 nm
interaction between FLPNF and hIAPP ([8]; biolayer interferometry, immobilized FLPNF): strong interaction
ThT green fluorescence signal with increasing concentrations (fluorescence microscope) ([7]; 0, 20, 50, 100, 200, 400 μM FLPNF + 10 μM hIAPP): gradually decreased
ThT fluorescence intensity with increasing concentrations (luminescence meter) ([7]; 0, 20, 50, 100, 200, 400 μM FLPNF + 10 μM hIAPP, repeated thrice): gradually reduced
ThT fluorescence intensity compared to 0 μM group ([7]; 100, 200 and 400 μM FLPNF + 10 μM hIAPP, P < 0.05, unpaired t-test, repeated thrice): significantly lowered
Substance: Phe-Leu-Pro-Asn-Phe [FLPNF]
INS-1 cell viability compared to hIAPP group ([4]; 100 μM FLPNF + 10 μM hIAPP, 24 hours, OD 490 nm, P < 0.05, unpaired t-test, repeated thrice): significant improvement in cell viability
INS-1 cell viability, FLPNF alone ([4]; FLPNF alone, no hIAPP, MTS): no direct effect on the viability of INS-1 cells; also recorded: no direct effect on cell viability
INS-1 cell viability compared to control group, with FLPNF + hIAPP ([4]; hIAPP with FLPNF at 1 : 10 ratio, 24 hours, MTS): still lower
ThT fluorescence intensity compared to hIAPP alone (luminescence meter) ([5]; 100 μM FLPNF + 10 μM hIAPP, PBS pH 7.4, 20 μM ThT, 37°C, 12, 24 and 48 hours, ex 435 nm, em 485 nm, repeated thrice): decreased the fluorescence intensity compared to hIAPP alone
ThT fluorescence signal (fluorescence microscope) ([5]; 100 μM peptide + 10 μM hIAPP, PBS pH 7.4, 20 μM ThT, 37°C, 24 and 48 hours): strong reduction of the fluorescence signal
inhibition of hIAPP amyloid aggregation ([5]; 10 : 1 molar ratio FLPNF to hIAPP, in vitro, ThT): strongly inhibited the amyloid aggregation of hIAPP
dissociation ([8]; dissociation phase 600 sec, 50% DMSO+0.05% PBST in PBS, Octet K2): tardily reversible; also recorded: slowly dropped to 0
hIAPP fibril formation by TEM, with added peptide [6]: reduced the amounts of fibril formation; also recorded: not completely prevented but were reduced in density; also recorded: less numerous but appeared to be more thickened

Substance: SNNFGA
prevention of hIAPP fibril formation on TEM images [2]: could not completely prevent the formation of fibrils of hIAPP
inhibition of hIAPP aggregation in vitro [3]: can inhibit hIAPP aggregation in vitro

Substance: human islet amyloid polypeptide (KCNTATCATQRLANFLVHSSNNFGAILSSTNVGSNTY; Islet amyloid polypeptide; UniProt P10997 34-70, looked up) [hIAPP, hormone secreted by β-cells consisting of 37 amino acid residues]
INS-1 cell viability compared to control group ([4]; 10 μM hIAPP alone, 24 hours, OD 490 nm, P < 0.001, unpaired t-test, repeated thrice): significantly decreased the cell viability
fibril morphology of hIAPP alone by TEM ([6]; 10 μM hIAPP alone): typical dense fibrils; also recorded: typical morphology and formation of dense aggregates
